Data published in a compilation of properties of binary mixtures (doi:10.1016/j.molliq.2020.114573).

Assay: xn = mol fraction of the nth substance listed
Conditions: 101.3 kPa

CC[n+]1ccn(C)c1C.O=S(=O)([N-]S(=O)(=O)C(F)(F)F)C(F)(F)F + CC1COC(=O)O1
viscosity [mPa·s]
Conditions | x1 = 0.1025 | x1 = 0.203 | x1 = 0.3078 | x1 = 0.3994 | x1 = 0.5149 | x1 = 0.5825 | x1 = 0.7004 | x1 = 0.8032 | x1 = 0.8903 | x1 = 1
293.15 K | 4.428 | 6.93 | 10.56 | 14.82 | 23.06 | 28.58 | 40.63 | 54.1 | 67.4 | 88.1
298.15 K | 3.939 | 6.07 | 9.11 | 12.62 | 19.36 | 23.79 | 33.34 | 43.9 | 54.2 | 69.8
303.15 K | 3.529 | – | 7.94 | 10.86 | 16.94 | – | 27.76 | 36.2 | 44.35 | 56.4
308.15 K | 3.181 | 4.77 | 6.98 | 9.45 | 14.61 | 17.55 | 23.4 | 30.24 | 36.77 | 46.1
313.15 K | 2.886 | 4.278 | 6.18 | 8.29 | 12.57 | 15.29 | – | 25.57 | 30.87 | 38.26
318.15 K | 2.631 | 3.864 | 5.52 | – | – | 13.22 | 17.6 | – | 26.2 | 32.15
323.15 K | – | 3.506 | 4.96 | 6.54 | – | 11.45 | – | 18.92 | 22.48 | 27.31
328.15 K | 2.218 | – | 4.485 | 5.86 | 8.27 | 9.99 | 13.53 | – | 19.46 | 23.43
333.15 K | 2.05 | 2.932 | 4.078 | – | 7.31 | 8.77 | 11.81 | 14.88 | 17.38 | 20.28
338.15 K | 1.901 | 2.699 | – | 4.8 | 6.49 | 7.77 | 10.37 | 13.07 | 15.46 | 17.69
343.15 K | 1.769 | 2.494 | 3.419 | – | 5.82 | – | 9.15 | 11.54 | – | 15.62
348.15 K | – | 2.312 | 3.149 | 4.011 | 5.23 | 6.15 | – | 10.17 | 12.07 | 13.94
